“Also recorded” adds a separate entry of the source. Where two headings read alike, the source gives them in different places. Blank lines part the entries; values can stand above or below the molecule they belong to.
What was measured:
[1] = tested on: myo-inositol dehydrogenase derived from the strain F.sp.671; assay: Relative activity assay (initial velocity with each coenzyme or substrate); assay type: biochemical, Flavobaterium sp. 671; conditions: for Substrate specificity (enzyme activity for each substrate): coenzyme NAD, substrate 20 mM, pH 10.0, 37° C., initial velocity to myo-inositol as 100%; for Relative activity ratio for each coenzyme used: substrate 20 mM myo-inositol, coenzyme 2 mM, 100 mM glycine buffer pH 10.0, 37° C., NAD as 100%
Method: The relative activities were determined with the coenzyme changed according to the following method. Relative Activity Assay <Composition of Reaction Solution> • Buffer: 100 mM glycine buffer (pH 10.0) • Substrate: 20 mM myo-inositol (Sigma, Co., Ltd.) • Coenzyme: 2 mM (NAD, thio-NAD, NADP, thio NADP; Oriental Yeast Co., Ltd.) One ml of the above reaction solution is added to a quartz cell. Then, the quartz cell is placed in a spectrophotometer adjusted at a temperature of 37° C. The cell is incubated for 5 minutes or more and then 20 μl of an enzyme solution of about 1.0 U/ml is added thereto and mixed. The initial velocity is obtained from an absorbance change per minute at a wavelength peculiar to each reduced coenzyme. The initial velocity obtained with each coenzyme is compared with the initial velocity (100%) obtained using NAD as a coenzyme to provide the relative activity. According to the relative activity assay described above, the measurement was performed using the same concentration of D-chiro-inositol, D-mannose, D-fructose, D-galactose, mannitol, epi-inositol, or scyllo-inositol in place of the substrate in the reaction solution. […] The substrates used include D-mannose, D-fructose, D-galactose, mannitol, D-chiro-inositol (as above: Wako Pure Chemical Industries, Ltd.), myo-inositol, epi-inositol, and scyllo-inositol (as above: Sigma, Co., Ltd.). Following the relative activity assay described above, the measurement was performed using each of 100 mM tris buffer (pH 7.0-9.0) and 100 mM glycine buffer (pH 9.0-11.0) in place of 100 mM of pH 10.0 glycine buffer in the reaction solution. […] Using the relative activity assay described above, the concentration of myo-inositol and the concentrations of NAD and thio-NAD were changed to determine Km values respectively. Using the activity assay described above, the substrate concentration was changed to calculate the Km value.

[2] = tested on: myo-inositol dehydrogenase; conditions: pH 8.8
[3] = tested on: myo-inositol dehydrogenase; assay: Study on buffers in reagents for myo-inositol quantitative determination (acceleration stability test of R-2 reagent); conditions: 100 mM buffer pH 8.8; R-2 stored at 30° C. for 20 days, tested on 7th, 12th, 20th days

Substrate specificity (enzyme activity for each substrate) [1]: 18%
Molecule: OC1C(O)C(O)C(O)C(O)C1O [chiro-Inositol, D-chiro-inositol]

Relative activity ratio for each coenzyme used [1]: 0%
Molecule: NC(=S)c1ccc[n+]([C@@H]2O[C@H](COP(=O)([O-])OP(=O)(O)OC[C@H]3O[C@@H](n4cnc5c(N)ncnc54)[C@H](OP(=O)(O)O)[C@@H]3O)[C@@H](O)[C@H]2O)c1 [Thio-NADP, thio-nicotinamide adenine dinucleotide phosphate]

Molecule: Tris(hydroxymethyl)aminomethane
Stability of sensitivity of R-2 reagent by buffer, in comparison to the standard solution [2]: stable sensitivity

Molecule: O=C(O)CN(CCO)CCO [Bicine, N,N-Bis(hydroxyethyl)glycine]
Stability of sensitivity of R-2 reagent by buffer, in comparison to the standard solution [3]: stable sensitivity; also recorded: most stable sensitivity

Stability of sensitivity of R-2 reagent by buffer, in comparison to the standard solution [3]: stable sensitivity
Molecule: O=C(O)CNC(CO)(CO)CO [Tricine, N-Tris(hydroxymethyl)methylglycine]

Substrate specificity (enzyme activity for each substrate) [1]: 100%
Km ([1]; substrate concentration changed, read-out: Km value for substrate): 1.7 ± 0.2 mM
Molecule: O[C@H]1[C@H](O)[C@@H](O)[C@H](O)[C@@H](O)[C@H]1O [myo-Inositol, myo-inositol]

Substrate specificity (enzyme activity for each substrate) [1]: less than 1%
Molecule: O[C@H]1[C@H](O)[C@@H](O)[C@H](O)[C@@H](O)[C@@H]1O [scyllo-Inositol, scyllo-inositol]

Substrate specificity (enzyme activity for each substrate) [1]: less than 1%
Molecule: O=C(CO)[C@@H](O)[C@H](O)[C@H](O)CO [Fructose, D-fructose]

Molecule: nicotinamide adenine dinucleotide phosphate [NADP]
Relative activity ratio for each coenzyme used [1]: 8%

Substrate specificity (enzyme activity for each substrate) [1]: less than 1%
Molecule: O=C[C@H](O)[C@@H](O)[C@@H](O)[C@H](O)CO [Galactose, D-galactose]

Substrate specificity (enzyme activity for each substrate) [1]: 2%
Molecule: OC1C(O)C(O)C(O)C(O)C1O (stereo not drawn) [epi-Inositol, epi-inositol]

Substrate specificity (enzyme activity for each substrate) [1]: 0%
Molecule: OC[C@@H](O)[C@@H](O)[C@H](O)[C@H](O)CO [Mannitol, mannitol]

Km ([1]; coenzyme concentration changed, read-out: Km value for coenzyme): 4.5 ± 1 mM
Relative activity ratio for each coenzyme used [1]: 29%
Molecule: NC(=S)c1ccc[n+]([C@@H]2O[C@H](COP(=O)([O-])OP(=O)(O)OC[C@H]3O[C@@H](n4cnc5c(N)ncnc54)[C@H](O)[C@@H]3O)[C@@H](O)[C@H]2O)c1 [Thio-NAD, thio-nicotinamide adenine dinucleotide]

Source: patent publication US7452687B2 (Asahi Kasei Pharma Corporation, priority 2002, dated 2008)
